Laboratory results as given in US11951094B2, “TLR2 modulator compounds, pharmaceutical compositions and uses thereof” (Axial Therapeutics, Inc., priority 2020, dated 2024).
Where a name gives a salt, the structure may show the parent alone.

target: TLR2 (Homo sapiens, UniProt O60603); assay: TLR2 agonist screening assay, HEK-Blue TLR2 reporter cell line (NF-kB-driven SEAP, absorbance at 600 nm); assay type: cell-based; design: host or cells: HEK-293 (HEK-Blue TLR2 reporter cell line); details: HEK-Blue TLR2 reporter cells, agonist mode; average of all runs (Table 3)
Source text: TLRs are a class of cell-surface receptors expressed on many different cell types that recognize conserved structural motifs present on pathogen-derived molecules. TLR2 recognizes bacteria-derived lipopeptides. […] Provided herein is an assay to identify and characterize the binding affinities of novel TLR2 agonists.
The in vitro TLR2 assay consists of a cell line that responds to TLR2 engagement by producing a factor that elicits a color change in the culture media and can be readily measured by various colorimetric detection methods. This assay enables the identification of existing and novel compounds that engage TLR2 and, by virtue of compound dilution, to approximate the binding affinity of these compounds for eliciting a TLR2 signal.
The TLR2 screening assay was developed from the HEK-Blue TLR2 reporter cell line that is commercially available from Invivogen (San Diego, CA). The reporter cell line consists of HEK-293 embryonic kidney cells that have been engineered to express TLR2 and with an NF-kB promoter driving expression of Secreted Alkaline Phosphatase (SEAP). Upon engagement of TLR2, downstream signaling results in activation of NF-kB pathway activation and secretion of SEAR In the presence of the detection reagent in the tissue culture media, SEAP mediates a color change from clear to indigo that is readily assessed by measuring absorbance at 600 nm.
HEK-Blue TLR2 reporter cells are cultured according to manufacturer's specifications until a confluence of 70-90%, at which point the cells are trypsinized, counted, and plated into 96-well plates at approximately 40,000 cells per well. Cells are cultured overnight and the TLR2 assay is performed 16-24 hours post-plating into 96 well plates.
Compounds are diluted from stocks dissolved in DMSO and a 1% DMSO final concentration is maintained in all testing wells.
The assay consists of removing the cell culture media after cells have been cultured overnight and replacing the media with HEK-Blue Detection media with TLR2 agonists at indicated dilution schemes. The Detection media contains a chemical substrate that turns from clear to indigo when acted upon by SEAP. The HEK-Blue cells are then cultured overnight in Detection media with diluted compounds. After overnight culture with agonists, each well of the plate is assayed in a plate reader at 600 nanometer absorbance.
• (1) HEK-Blue TLR2 cells are diluted in complete DME culture medium and plated into 96-well plates at 40,000 cells per well and cultured overnight. • (2) After 16-24 hours in culture, the media is removed and replaced with 200 microliters per well of HEK-Blue Detection media. • (3) TLR2 agonists are diluted 100-fold from DMSO stocks into each well, yielding a final DMSO concentration of 1% in all wells. • (3) Treated cells are cultured overnight and the following day are assayed in plate reader for Absorbance at 600 nanometer.
Following assay measurements utilizing either HEK-Blue detection or cytokine release, all data is analyzed with the GraphPad Prism8 statistical package to determine EC50, binding and activity metrics for the TLR2 modulators.
Data is generated using protocol described in Example 44.

Chain of TLR2 (O60603 21-784): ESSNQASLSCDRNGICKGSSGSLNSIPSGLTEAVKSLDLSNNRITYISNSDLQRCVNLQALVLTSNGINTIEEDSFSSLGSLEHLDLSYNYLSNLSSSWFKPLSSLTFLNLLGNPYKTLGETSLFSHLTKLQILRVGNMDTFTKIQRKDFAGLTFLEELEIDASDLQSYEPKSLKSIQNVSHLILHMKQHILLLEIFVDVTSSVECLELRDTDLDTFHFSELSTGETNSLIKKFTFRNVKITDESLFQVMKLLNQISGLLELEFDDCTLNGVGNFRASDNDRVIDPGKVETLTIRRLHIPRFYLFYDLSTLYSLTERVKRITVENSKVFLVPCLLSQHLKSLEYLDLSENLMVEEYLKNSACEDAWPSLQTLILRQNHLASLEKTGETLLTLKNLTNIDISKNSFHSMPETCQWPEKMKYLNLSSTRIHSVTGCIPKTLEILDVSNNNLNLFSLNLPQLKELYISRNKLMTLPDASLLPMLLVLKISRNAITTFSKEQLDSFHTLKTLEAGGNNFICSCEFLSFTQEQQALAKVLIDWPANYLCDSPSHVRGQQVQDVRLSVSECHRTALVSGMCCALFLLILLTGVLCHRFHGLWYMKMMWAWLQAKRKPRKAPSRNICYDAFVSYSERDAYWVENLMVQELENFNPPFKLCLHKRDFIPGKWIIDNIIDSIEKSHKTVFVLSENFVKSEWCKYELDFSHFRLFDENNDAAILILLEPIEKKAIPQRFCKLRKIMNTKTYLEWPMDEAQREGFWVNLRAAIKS

SMILES	EC50 [µM]
CCCCCCNC(=O)[C@H](CCNC(=O)c1ccc(C(=O)N2C[C@@H](C(=O)N[C@H]3C[C@@H]3c3ccccc3)[C@H](C(=O)N[C@H]3C[C@@H]3c3ccccc3)C2)cc1)NC(=O)CCCCCC [Compound 017]	> 1
CCCCCCNC(=O)C1CN(C(=O)c2ccc(C(=O)N3C[C@@H](C(=O)N[C@H]4C[C@@H]4c4ccccc4)[C@H](C(=O)N[C@H]4C[C@@H]4c4ccccc4)C3)cc2)CCN1C(=O)CCCCCC (mixture of isomers) [Compound 056, (3S,4S)-1-(4-(4-heptanoyl-3-(hexylcarbamoyl)piperazine-1-carbonyl)benzoyl)-N3,N4-bis((1S,2R)-2-phenylcyclopropyl)pyrrolidine-3,4-dicarboxamide]	0.0001 to 0.05
CCCCCCCC(=O)N1CCN(C(=O)c2ccc(C(=O)N3C[C@@H](C(=O)N[C@H]4C[C@@H]4c4ccccc4)[C@H](C(=O)N[C@H]4C[C@@H]4c4ccccc4)C3)cc2)CC1C(=O)NCCCCC (stereo partly drawn) [Compound 052, (3S,4S)-1-(4-(4-octanoyl-3-(pentylcarbamoyl)piperazine-1-carbonyl)benzoyl)-N3,N4-bis((1S,2R)-2-phenylcyclopropyl)pyrrolidine-3,4-dicarboxamide]	0.0001 to 0.05
CCCCCCNC(=O)C1CN(C(=O)c2ccc(C(=O)N3C[C@@H](C(=O)N[C@H]4C[C@@H]4c4ccccc4)[C@H](C(=O)N[C@H]4C[C@@H]4c4ccccc4)C3)cc2)CCN1C(=O)NCCCCCC (stereo partly shown) [Compound 049]	> 1
CCCCCCNC(=O)[C@H]1CN(C(=O)c2ccc(C(=O)N3C[C@@H](C(=O)N[C@H]4C[C@@H]4c4ccccc4)[C@H](C(=O)N[C@H]4C[C@@H]4c4ccccc4)C3)cc2)C[C@@H]1C(=O)NCCCCCC [Compound 029]	0.051 to 0.35
CCCCCCNC(=O)C1CN(C(=O)c2ccc(C(=O)N3C[C@@H](C(=O)N[C@H]4C[C@@H]4c4ccccc4)[C@H](C(=O)N[C@H]4C[C@@H]4c4ccccc4)C3)cc2)CCN1C(=O)CCC (stereo partly drawn) [Compound 055, (3S,4S)-1-(4-(4-butyryl-3-(hexylcarbamoyl)piperazine-1-carbonyl)benzoyl)-N3,N4-bis((1S,2R)-2-phenylcyclopropyl)pyrrolidine-3,4-dicarboxamide]	0.351 to 1
CCCCCCCCCCCCCCC(=O)NC(C)(C)CNC(=O)c1ccc(C(=O)N2C[C@@H](C(=O)N[C@H]3C[C@@H]3c3ccccc3)[C@H](C(=O)N[C@H]3C[C@@H]3c3ccccc3)C2)cc1 [Compound 012]	> 1
CCCCCCCCCCCCCCNC(=O)C1CN(C(=O)c2ccc(C(=O)N3C[C@@H](C(=O)N[C@H]4C[C@@H]4c4ccccc4)[C@H](C(=O)N[C@H]4C[C@@H]4c4ccccc4)C3)cc2)CCN1C (stereo partly drawn) [Compound 023, (3S,4S)-1-(4-(4-methyl-3-(tetradecylcarbamoyl)piperazine-1-carbonyl)benzoyl)-N3,N4-bis((1S,2R)-2-phenylcyclopropyl)pyrrolidine-3,4-dicarboxamide formate]	0.0001 to 0.05
CCCCCCNC(=O)[C@@H]1CN(C(=O)c2ccc(C(=O)N3C[C@@H](C(=O)N[C@H]4C[C@@H]4c4ccccc4)[C@H](C(=O)N[C@H]4C[C@@H]4c4ccccc4)C3)cc2)C[C@@H]1O (racemic) [Compound 034, (3S,4S)-1-(4-((3R*,4R*)-3-(hexylcarbamoyl)-4-hydroxypyrrolidine-1-carbonyl)benzoyl)-N3,N4-bis((1S,2R)-2-phenylcyclopropyl)pyrrolidine-3,4-dicarboxamide]	0.351 to 1
CCCCCCCC(=O)N1CCN(C(=O)c2ccc(C(=O)N3C[C@@H](C(=O)N[C@H]4C[C@@H]4c4ccccc4)[C@H](C(=O)N[C@H]4C[C@@H]4c4ccccc4)C3)cc2)CC1C(=O)NCC (stereo partly drawn) [Compound 048, (3S,4S)-1-(4-(3-(ethylcarbamoyl)-4-octanoylpiperazine-1-carbonyl)benzoyl)-N3,N4-bis ((1S,2R)-2-phenylcyclopropyl) pyrrolidine-3,4-dicarboxamide]	0.351 to 1
CCCCCCNC(=O)CC[C@H](NC(=O)c1ccc(C(=O)N2C[C@@H](C(=O)N[C@H]3C[C@@H]3c3ccccc3)[C@H](C(=O)N[C@H]3C[C@@H]3c3ccccc3)C2)cc1)C(=O)NCCCCCC [Compound 013]	> 1

same assay, conditions: HEK-Blue TLR2 reporter cells, agonist mode; average of all runs (Table 4)

SMILES	EC50 [µM]
CCCCCCCCCCCCCCNC(=O)[C@@H]1CN(C(=O)c2ccc(C(=O)N3C[C@@H](C(=O)N[C@H]4C[C@@H]4c4ccccc4)[C@H](C(=O)N[C@H]4C[C@@H]4c4ccccc4)C3)cc2)C[C@H]1N(C)[C@H](C)c1ccccc1 [Compound 090, (3S,4S)-1-(4-((3S,4R)-3-(methyl((R)-1-phenylethyl)amino)-4-(tetradecylcarbamoyl)pyrrolidine-1-carbonyl)benzoyl)-N3,N4-bis((1S,2R)-2-phenylcyclopropyl)pyrrolidine-3,4-dicarboxamide]	> 1
CCCCCCCCNC(=O)[C@H](CNC(=O)c1ccc(C(=O)N2C[C@@H](C(=O)N[C@H]3C[C@@H]3c3ccccc3)[C@H](C(=O)N[C@H]3C[C@@H]3c3ccccc3)C2)cc1)NC(=O)CCCCCC [Compound 141, (3S,4S)-1-(4-(((S)-2-heptanamido-3-(octylamino)-3-oxopropyl)carbamoyl)benzoyl)-N3,N4-bis((1S,2R)-2-phenylcyclopropyl)pyrrolidine-3,4-dicarboxamide]	0.0001 to 0.05
CCCCCCCCCC(=O)N[C@@H](CNc1nc2ccc(C(=O)N3C[C@@H](C(=O)N[C@H]4C[C@@H]4c4ccccc4)[C@H](C(=O)N[C@H]4C[C@@H]4c4ccccc4)C3)cc2s1)C(=O)NCCCCCC [Compound 262, (3S,4S)-1-(2-(((S)-2-decanamido-3-(hexylamino)-3-oxopropyl)amino)benzo[d]thiazole-6-carbonyl)-N3,N4-bis((1S,2R)-2-phenylcyclopropyl)pyrrolidine-3,4-dicarboxamide]	> 1
CCCCCCCCCCCCCCNC(=O)[C@@H]1CN(S(=O)(=O)c2ccc(C(=O)N3C[C@@H](C(=O)N[C@H]4C[C@@H]4c4ccccc4)[C@H](C(=O)N[C@H]4C[C@@H]4c4ccccc4)C3)cc2)CCN1C(C)=O [Compound 196, (3S,4S)-1-(4-(((S)-4-acetyl-3-(tetradecylcarbamoyl)piperazin-1-yl)sulfonyl)benzoyl)-N3,N4-bis((1S,2R)-2-phenylcyclopropyl)pyrrolidine-3,4-dicarboxamide]	> 1
CCCCCCCCCC(=O)N[C@@H](CNc1nc2ccc(C(=O)N3C[C@@H](C(=O)N[C@H]4C[C@@H]4c4ccccc4)[C@H](C(=O)N[C@H]4C[C@@H]4c4ccccc4)C3)cc2o1)C(=O)NCCCCCC [Compound 261, (3S,4S)-1-(2-(((S)-2-decanamido-3-(hexylamino)-3-oxopropyl)amino)benzo[d]oxazole-6-carbonyl)-N3,N4-bis((1S,2R)-2-phenylcyclopropyl)pyrrolidine-3,4-dicarboxamide]	> 1
CCCCCCCCCCCCCCNC(=O)[C@H]1CN(S(=O)(=O)c2ccc(C(=O)N3C[C@@H](C(=O)N[C@H]4C[C@@H]4c4ccccc4)[C@H](C(=O)N[C@H]4C[C@@H]4c4ccccc4)C3)cc2)CCN1C(C)=O [Compound 195, (3S,4S)-1-(4-(((R)-4-acetyl-3-(tetradecylcarbamoyl)piperazin-1-yl)sulfonyl)benzoyl)-N3,N4-bis((1S,2R)-2-phenylcyclopropyl)pyrrolidine-3,4-dicarboxamide]	> 1
CCCCCCCCCCCCCCNC(=O)[C@@H]1CN(C(=O)c2ccc(C(=O)N3C[C@@H](C(=O)N[C@H]4C[C@@H]4c4ccccc4)[C@H](C(=O)N[C@H]4C[C@@H]4c4ccccc4)C3)cc2)CCN1C(=O)C(C)C [Compound 250, (3S,4S)-1-(4-((S)-4-isobutyryl-3-(tetradecylcarbamoyl)piperazine-1-carbonyl)benzoyl)-N3,N4-bis((1S,2R)-2-phenylcyclopropyl)pyrrolidine-3,4-dicarboxamide]	> 1
CCCCCCCCCCCCCCNC(=O)[C@@H]1CN(C(=O)c2ccc(C(=O)N3C[C@@H](C(=O)N[C@H]4C[C@@H]4c4ccccc4)[C@H](C(=O)N[C@H]4C[C@@H]4c4ccccc4)C3)cc2)C[C@H]1N(C)C [Compound 091, (3S,4S)-1-(4-((3S,4R)-3-(dimethylamino)-4-(tetradecylcarbamoyl)pyrrolidine-1-carbonyl)benzoyl)-N3,N4-bis((1S,2R)-2-phenylcyclopropyl)pyrrolidine-3,4-dicarboxamide]	> 1
